US9968645B2, “Method for enhanced production of morinda metabolites” (priority 2014, dated 2018)

System: DSS-induced ulcerative colitis in mouse
Experiment: Acute mouse ulcerative colitis model, colitis induced by 4% dextran sulfate (DSS)
Type: in vivo
Conditions: Male BalbC mice, 20 mg/kg co-fed with 4% DSS for 7 days
Method: The therapeutic efficacy of the methanolic extracts of MO hairy roots was examined in an acute mouse ulcerative colitis model. The mouse ulcerative colitis model is used to predict ulcerative colitis and treatment of that disease in human subjects (e.g. Low et. al., 2013). Male BalbC mice in groups of 10 were housed in Good Animal Care Protocol conditions. Colitis was induced by 4% dextran sulfate (DSS). In a pilot dosing study (50 mg/kg, 150 mg/kg, and 450 mg/kg) of MO root extracts on UC, an unexpected finding was made. […] Subsequently the effect of drug treatment on colitis was investigated by co-feeding the mice extracts from MO native plants or hairy root culture at doses below 50 mg/kg along with 4% DSS for 7 days. 5-amino-salicylic acid (5-ASA) was used as a positive treatment control. Animals were weighed, and stool consistency was monitored daily to determine the disease activity index (DAD. All animals were anesthetized and the colons were separated from the proximal rectum, and the colon length was measured between the ileo-cecal junction and the proximal rectum. [table]

Structure (SMILES): Nc1ccc(O)c(C(=O)O)c1 [5-ASA, 5-amino-salicylic acid]
- DAI (disease activity index): 3.0 ± 2.22
- Length of colon: 6.77 ± 0.19 cm
- % of mice developing ulcer (including disruption of colonic crypts and damaged glandular structures): 60%
